Results on 21 molecules are retold here after PubChem BioAssay AID328 (DTP/NCI, 2004).

The test system of the experiment is BDF1 mice, P388 leukemia ip, median survival T/C. Description: NCI In Vivo Anticancer Drug Screen. Data for tumor model P388 Leukemia (intraperitoneal) in B6D2F1 (BDF1) mice. The note with it: endpoint: median survival time, higher = longer survival. An outline of the steps: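 Reported as T/C, where T is the survival measurement in dosed animals and C the same measurement in vehicle controls.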

Setting [1] is: dose: 25.0 mg/kg/injection, schedule: Q01DX009 (ip), vehicle: Klucel (hydroxypropylcellulose) (HPC).
The mark [2] stands for this setting: dose: 100.0 mg/kg/injection, schedule: Q01DX009 (ip), vehicle: Klucel (hydroxypropylcellulose) (HPC).
The mark [3] stands for this setting: dose: 50.0 mg/kg/injection, schedule: Q01DX009 (ip), vehicle: saline with Tween-80.
Where [4] appears, read: dose: 100.0 mg/kg/injection, schedule: Q01DX009 (ip), vehicle: saline with Tween-80.
Where [5] appears, read: dose: 200.0 mg/kg/injection, schedule: Q01DX009 (ip), vehicle: saline with Tween-80.
Setting [6] is: dose: 400.0 mg/kg/injection, schedule: Q04DX003 (ip), vehicle: saline.
[7] abbreviates: dose: 100.0 mg/kg/injection, schedule: Q04DX003 (ip), vehicle: saline with Tween-80.
Where [8] appears, read: dose: 200.0 mg/kg/injection, schedule: Q04DX003 (ip), vehicle: saline with Tween-80.
Where [9] appears, read: dose: 400.0 mg/kg/injection, schedule: Q04DX003 (ip), vehicle: saline with Tween-80.
The mark [10] stands for this setting: dose: 200.0 mg/kg/injection, schedule: Q01DX009 (ip), vehicle: saline.
Setting [11] is: dose: 400.0 mg/kg/injection, schedule: Q01DX009 (ip), vehicle: saline.
The mark [12] stands for this setting: dose: 12.5 mg/kg/injection, schedule: Q04DX003 (ip), vehicle: Klucel (hydroxypropylcellulose) (HPC).
[13] abbreviates: dose: 25.0 mg/kg/injection, schedule: Q04DX003 (ip), vehicle: Klucel (hydroxypropylcellulose) (HPC).
Where [14] appears, read: dose: 100.0 mg/kg/injection, schedule: Q04DX003 (ip), vehicle: other.
Setting [15] is: dose: 200.0 mg/kg/injection, schedule: Q04DX003 (ip), vehicle: other.

Molecules are shown by their SMILES. Several values for one entry are separate records, joined by “and”; a condition that tells them apart may be missing. Identical values can stand only once. Inconclusive results and toxic doses are left out.

As for `CCCCCCCCCCCCCSCCCCCCCCCCCCSCCCCCCCCCCCC`, the T/C reads like this: (dose: 100.0 mg/kg/injection, schedule: Q01DX001 (ip), vehicle: saline sonified) 86 % of control; (dose: 200.0 mg/kg/injection, schedule: Q01DX001 (ip), vehicle: saline sonified) 86 % of control; (dose: 400.0 mg/kg/injection, schedule: Q01DX001 (ip), vehicle: saline sonified) 90 % of control.

For the molecule `CCCc1nc2c(OC)ccc(OC)c2nc1C`, the T/C under setting [1] is 100 % of control; the T/C (dose: 50.0 mg/kg/injection, schedule: Q01DX009 (ip), vehicle: Klucel (hydroxypropylcellulose) (HPC)) was 100 % of control; the T/C under setting [2] was 100 % of control; the T/C (dose: 150.0 mg/kg/injection, schedule: Q01DX009 (ip), vehicle: Klucel (hydroxypropylcellulose) (HPC)) was 90 % of control.

With `CC(=O)OCC1OC(n2ccc(N)nc2=O)C(OC(C)=O)C1OC(C)=O` (stereo unspecified), the T/C is, setting by setting: under setting [3], 170 % of control; under setting [4], 188 % of control; (dose: 177.0 mg/kg/injection, schedule: Q04DX003 (ip), vehicle: saline) 177 % of control; under setting [5], 106 % of control; (dose: 266.0 mg/kg/injection, schedule: Q04DX003 (ip), vehicle: saline) 181 % of control and 195 % of control; under setting [6], 187 % of control and 204 % of control. For the setting “dose: 600.0 mg/kg/injection, schedule: Q04DX003 (ip), vehicle: saline”, the T/C is 263 % of control and 200 % of control.

As for `CC(=O)O.[Cd]`, for the setting “dose: 5.0 mg/kg/injection, schedule: Q04DX003 (ip), vehicle: saline”, the T/C was 95 % of control.

As to `Cc1ncc(CSc2ccccc2N)c(CO)c1O`, the T/C under setting [3] is 91 % of control, the T/C under setting [4] is 92 % of control and the T/C under setting [5] was 94 % of control.

As to `CC(=O)[C@@]12OC(C)(C)O[C@@H]1C[C@H]1[C@@H]3C[C@H](C)C4=CC(=O)CC[C@]4(C)[C@H]3CC[C@@]12C`, the T/C under setting [4] was 104 % of control; the T/C under setting [7] is 109 % of control; the T/C under setting [5] is 104 % of control; the T/C under setting [8] was 95 % of control; the T/C under setting [9] is 104 % of control.

In the case of `COc1cc(OC)c(NC(=O)c2ccc([N+](=O)[O-])s2)cc1Cl`, the T/C (dose: 25.0 mg/kg/injection, schedule: Q01DX005 (ip), vehicle: saline) was 102 % of control and the T/C (dose: 50.0 mg/kg/injection, schedule: Q01DX005 (ip), vehicle: saline) is 89 % of control.

Regarding `CC(C)(CCC(C)(C)NCCC#N)NCCC#N`, the T/C (dose: 50.0 mg/kg/injection, schedule: Q01DX009 (ip), vehicle: saline) is 97 % of control and 104 % of control; the T/C (dose: 100.0 mg/kg/injection, schedule: Q01DX009 (ip), vehicle: saline) was 101 % of control; the T/C (dose: 100.0 mg/kg/injection, schedule: Q04DX003 (ip), vehicle: saline) is 98 % of control; the T/C under setting [10] was 109 % of control and 119 % of control; the T/C (dose: 200.0 mg/kg/injection, schedule: Q04DX003 (ip), vehicle: saline) is 109 % of control; the T/C under setting [11] was 107 % of control. Moreover, the T/C under setting [6] was 114 % of control.

Turning to `CNC(=O)NCCOC(=O)NC`, the T/C reads like this: under setting [10], 100 % of control; under setting [11], 100 % of control.

For `CC(C1CCC/C(=N\NC(N)=O)C1)[N+](=O)[O-]` (stereo unspecified), the T/C reads like this: (dose: 0.19 mg/kg/injection, schedule: Q01DX009 (ip), vehicle: saline with Tween-80) 103 % of control; (dose: 0.39 mg/kg/injection, schedule: Q01DX009 (ip), vehicle: saline with Tween-80) 101 % of control and 102 % of control and 119 % of control; (dose: 0.78 mg/kg/injection, schedule: Q01DX009 (ip), vehicle: saline with Tween-80) 95 % of control and 99 % of control; (dose: 1.56 mg/kg/injection, schedule: Q01DX009 (ip), vehicle: saline with Tween-80) 96 % of control and 100 % of control and 109 % of control; (dose: 3.12 mg/kg/injection, schedule: Q01DX009 (ip), vehicle: saline with Tween-80) 93 % of control and 108 % of control and 113 % of control; (dose: 6.25 mg/kg/injection, schedule: Q01DX009 (ip), vehicle: saline with Tween-80) 92 % of control and 94 % of control.

As to `O=C(/C=C/c1ccc2c(c1)OCO2)c1ccc([N+](=O)[O-])cc1`, the T/C (dose: 6.25 mg/kg/injection, schedule: Q04DX003 (ip), vehicle: Klucel (hydroxypropylcellulose) (HPC)) was 100 % of control; the T/C under setting [12] is 100 % of control; the T/C under setting [13] is 100 % of control; the T/C (dose: 50.0 mg/kg/injection, schedule: Q04DX003 (ip), vehicle: Klucel (hydroxypropylcellulose) (HPC)) is 86 % of control; the T/C (dose: 100.0 mg/kg/injection, schedule: Q01DX001 (ip), vehicle: Klucel (hydroxypropylcellulose) (HPC)) was 105 % of control; the T/C (dose: 200.0 mg/kg/injection, schedule: Q01DX001 (ip), vehicle: Klucel (hydroxypropylcellulose) (HPC)) was 90 % of control. In addition, for the setting “dose: 400.0 mg/kg/injection, schedule: Q01DX001 (ip), vehicle: Klucel (hydroxypropylcellulose) (HPC)”, the T/C was 92 % of control.

`C=CC(O)CN1CC1` (stereo unspecified): the T/C (dose: 10.0 mg/kg/injection, schedule: Q04DX003 (ip), vehicle: saline) is 191 % of control.

In the case of `CCCCNC(C)(C)C(SS)c1cccs1` (stereo unspecified), the T/C is 100 % of control under setting [14] and 100 % of control under setting [15].

`CCOc1nc(SCC)ncc1C`: the T/C was 109 % of control (dose: 50.0 mg/kg/injection, schedule: Q01DX009 (ip), vehicle: water); 101 % of control (dose: 100.0 mg/kg/injection, schedule: Q01DX009 (ip), vehicle: water); 99 % of control (dose: 100.0 mg/kg/injection, schedule: Q04DX003 (ip), vehicle: water); 108 % of control (dose: 200.0 mg/kg/injection, schedule: Q01DX009 (ip), vehicle: water); 103 % of control (dose: 200.0 mg/kg/injection, schedule: Q04DX003 (ip), vehicle: water); 107 % of control (dose: 400.0 mg/kg/injection, schedule: Q04DX003 (ip), vehicle: water).

For `Cc1ccc(CN(CC(=O)O)S(C)(=O)=O)cc1`, the T/C is 106 % of control under setting [14]; 109 % of control under setting [15]; 94 % of control (dose: 400.0 mg/kg/injection, schedule: Q04DX003 (ip), vehicle: other).

On to `N#CCSc1ncnc2nc[nH]c12`, for which the T/C is 95 % of control and 100 % of control (dose: 30.0 mg/kg/injection, schedule: Q01DX010 (ip), vehicle: saline); 100 % of control (dose: 60.0 mg/kg/injection, schedule: Q01DX010 (ip), vehicle: saline); 100 % of control (dose: 120.0 mg/kg/injection, schedule: Q01DX010 (ip), vehicle: saline).

Turning to `C#CC(N)=O`, the T/C is, setting by setting: under setting [12], 100 % of control; under setting [13], 90 % of control.

On to `CC(C)(S(=O)(=O)Oc1ccccc1)S(=O)(=O)Oc1ccccc1`, for which the T/C reads like this: under setting [7], 93 % of control; under setting [8], 87 % of control; under setting [9], 92 % of control.

`N#Cc1nc2ccccc2nc1C#N`: the T/C reads like this: (dose: 12.5 mg/kg/injection, schedule: Q01DX009 (ip), vehicle: Klucel (hydroxypropylcellulose) (HPC)) 106 % of control; under setting [1], 99 % of control.

For the molecule `COC(=O)C(Br)C(OC)c1ccccc1` (stereo unspecified), the T/C runs as follows: under setting [2], 91 % of control; (dose: 200.0 mg/kg/injection, schedule: Q01DX009 (ip), vehicle: Klucel (hydroxypropylcellulose) (HPC)) 95 % of control; (dose: 400.0 mg/kg/injection, schedule: Q01DX009 (ip), vehicle: Klucel (hydroxypropylcellulose) (HPC)) 95 % of control.

Turning to `CC(=O)CC(C)=O.CC(=O)CC(C)=O.[NH-]C1CCCCC1.[NH-]C1CCCCC1.[Ni+2]`, the T/C runs as follows: (dose: 19.0 mg/kg/injection, schedule: Q04DX003 (ip), vehicle: saline with Tween-80) 104 % of control; (dose: 20.0 mg/kg/injection, schedule: Q04DX003 (ip), vehicle: saline) 100 % of control; (dose: 37.5 mg/kg/injection, schedule: Q04DX003 (ip), vehicle: saline with Tween-80) 118 % of control; (dose: 40.0 mg/kg/injection, schedule: Q04DX003 (ip), vehicle: saline) 112 % of control.
